Assay results published in patent US20050222200A1, “AMIDE DERIVATIVES AS ION CHANNEL LIGANDS AND PHARMACEUTICAL COMPOSITIONS AND METHODS OF USING THE SAME” (Renovis, Inc., priority 2003, published 2005).

Biological target: T1, VR1 (Homo sapiens, UniProt Q8NER1)
T1 construct: expressed in transfected cells; host or cells: 293 cells ("293 neurons" [sic])
Test: High throughput calcium imaging assay of VR1 antagonists (Fura2, Flex Station, 96 well); note: test concentration or dose not given here
Type: cell-based
Conditions: Table 1 activity class

T1 sequence (Q8NER1 whole entry, species assumed): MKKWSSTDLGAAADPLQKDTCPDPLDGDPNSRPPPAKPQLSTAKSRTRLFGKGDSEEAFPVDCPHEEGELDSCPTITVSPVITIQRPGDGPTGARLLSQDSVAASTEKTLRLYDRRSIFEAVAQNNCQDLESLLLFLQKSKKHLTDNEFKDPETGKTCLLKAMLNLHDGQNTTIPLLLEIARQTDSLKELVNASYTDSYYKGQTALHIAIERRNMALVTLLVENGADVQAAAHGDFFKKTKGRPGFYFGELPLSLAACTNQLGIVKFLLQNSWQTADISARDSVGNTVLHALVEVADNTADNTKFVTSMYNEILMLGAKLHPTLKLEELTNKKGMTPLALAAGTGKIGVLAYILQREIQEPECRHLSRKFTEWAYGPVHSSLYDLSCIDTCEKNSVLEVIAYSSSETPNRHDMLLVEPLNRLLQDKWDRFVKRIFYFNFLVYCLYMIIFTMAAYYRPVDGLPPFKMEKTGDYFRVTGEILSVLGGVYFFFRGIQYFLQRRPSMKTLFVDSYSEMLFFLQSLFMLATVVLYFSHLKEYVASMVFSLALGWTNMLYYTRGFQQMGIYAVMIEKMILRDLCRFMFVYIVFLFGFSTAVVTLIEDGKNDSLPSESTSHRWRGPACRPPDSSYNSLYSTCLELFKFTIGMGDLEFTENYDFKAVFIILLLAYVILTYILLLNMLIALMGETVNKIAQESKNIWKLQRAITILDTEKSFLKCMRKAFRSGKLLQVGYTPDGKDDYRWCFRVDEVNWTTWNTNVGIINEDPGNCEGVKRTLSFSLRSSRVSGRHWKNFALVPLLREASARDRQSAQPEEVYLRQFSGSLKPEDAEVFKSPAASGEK

SMILES | inhibition of calcium ion influx induced by capsaicin stimulation
CC(C)/C=C/c1ccc(C(=O)Nc2cccc(C#N)c2)cc1 [Compound 150] | ++ (compound exhibited 25-50% inhibition of calcium ion influx induced by capsaicin stimulation)
CC(C)/C=C/c1ccc(C(=O)Nc2ccccc2CCO)cc1 [Compound 151] | +++ (compound exhibited 50-75% inhibition of calcium ion influx induced by capsaicin stimulation)
CC(C)/C=C/c1ccc(C(=O)Nc2ccc(C(C)C)cc2)cc1 [Compound 153] | ++++ (compound exhibited 75% or greater inhibition of calcium ion influx induced by capsaicin stimulation)
Cc1ccc(NC(=O)c2ccc(/C=C/C(C)C)cc2)c(C)c1 [Compound 156] | + (compound exhibited 0-25% inhibition of calcium ion influx induced by capsaicin stimulation)
CC(C)/C=C/c1ccc(C(=O)Nc2ccc3[nH]ccc3c2)cc1 [Compound 158] | ++ (compound exhibited 25-50% inhibition of calcium ion influx induced by capsaicin stimulation)
CCC(C)(C)NC(=O)c1ccc(/C=C/C(C)C)cc1 [Compound 164] | + (compound exhibited 0-25% inhibition of calcium ion influx induced by capsaicin stimulation)
CC(C)/C=C/c1ccc(C(=O)Nc2ccc(Cl)nc2)cc1 [Compound 166] | + (compound exhibited 0-25% inhibition of calcium ion influx induced by capsaicin stimulation)
CC(C)/C=C/c1ccc(C(=O)Nc2ccnc(Cl)c2)cc1 [Compound 168] | + (compound exhibited 0-25% inhibition of calcium ion influx induced by capsaicin stimulation)
CC(C)/C=C/c1ccc(C(=O)Nc2ccc3c(c2)OCO3)cc1 [Compound 169] | +++ (compound exhibited 50-75% inhibition of calcium ion influx induced by capsaicin stimulation)
CC(C)/C=C/c1ccc(C(=O)Nc2ccc3ncccc3c2)cc1 [Compound 171] | ++ (compound exhibited 25-50% inhibition of calcium ion influx induced by capsaicin stimulation)
CCn1c2ccccc2c2cc(NC(=O)c3ccc(/C=C/C(C)C)cc3)ccc21 [Compound 172] | ++ (compound exhibited 25-50% inhibition of calcium ion influx induced by capsaicin stimulation)
CC(C)/C=C/c1ccc(C(=O)Nc2ccc3c(c2)Cc2ccccc2-3)cc1 [Compound 175] | + (compound exhibited 0-25% inhibition of calcium ion influx induced by capsaicin stimulation)
CCC/C=C/c1ccc(C(=O)NC(C)C)cc1 [Compound 179] | + (compound exhibited 0-25% inhibition of calcium ion influx induced by capsaicin stimulation)
CCC/C=C/c1ccc(C(=O)NC2CCCCC2)cc1 [Compound 181] | + (compound exhibited 0-25% inhibition of calcium ion influx induced by capsaicin stimulation)
CCC/C=C/c1ccc(C(=O)NCc2ccco2)cc1 [Compound 183] | + (compound exhibited 0-25% inhibition of calcium ion influx induced by capsaicin stimulation)
CCC/C=C/c1ccc(C(=O)NCc2ccc(C(C)C)cc2)cc1 [Compound 185] | + (compound exhibited 0-25% inhibition of calcium ion influx induced by capsaicin stimulation)
CCC/C=C/c1ccc(C(=O)NCCCn2ccnc2)cc1 [Compound 190] | + (compound exhibited 0-25% inhibition of calcium ion influx induced by capsaicin stimulation)
CCC/C=C/c1ccc(C(=O)NC(c2ccccc2)c2ccccc2)cc1 [Compound 191] | + (compound exhibited 0-25% inhibition of calcium ion influx induced by capsaicin stimulation)
CCC/C=C/c1ccc(C(=O)NCCN2CCCC2)cc1 [Compound 192] | + (compound exhibited 0-25% inhibition of calcium ion influx induced by capsaicin stimulation)
CCC/C=C/c1ccc(C(=O)NCCCCC)cc1 [Compound 193] | ++ (compound exhibited 25-50% inhibition of calcium ion influx induced by capsaicin stimulation)
CCC/C=C/c1ccc(C(=O)NCCc2ccccc2Cl)cc1 [Compound 194] | + (compound exhibited 0-25% inhibition of calcium ion influx induced by capsaicin stimulation)
CCC/C=C/c1ccc(C(=O)NCc2ccccc2)cc1 [Compound 196] | + (compound exhibited 0-25% inhibition of calcium ion influx induced by capsaicin stimulation)
CCC/C=C/c1ccc(C(=O)NCCCC)cc1 [Compound 197] | + (compound exhibited 0-25% inhibition of calcium ion influx induced by capsaicin stimulation)

SMILES | inhibition of calcium ion influx induced by capsaicin stimulation
CCC/C=C/c1ccc(C(=O)NCCC)cc1 [Compound 198] | ++ (compound exhibited 25-50% inhibition of calcium ion influx induced by capsaicin stimulation)
CCC/C=C/c1ccc(C(=O)Nc2ccncc2)cc1 [Compound 202] | + (compound exhibited 0-25% inhibition of calcium ion influx induced by capsaicin stimulation)
CCC/C=C/c1ccc(C(=O)Nc2cccnc2)cc1 [Compound 203] | + (compound exhibited 0-25% inhibition of calcium ion influx induced by capsaicin stimulation)
CCC/C=C/c1ccc(C(=O)Nc2cc[nH]n2)cc1 [Compound 204] | + (compound exhibited 0-25% inhibition of calcium ion influx induced by capsaicin stimulation)
CCC/C=C/c1ccc(C(=O)Nc2nccs2)cc1 [Compound 205] | + (compound exhibited 0-25% inhibition of calcium ion influx induced by capsaicin stimulation)
CCC/C=C/c1ccc(C(=O)NCC2CCCO2)cc1 (stereo not shown) [Compound 206] | + (compound exhibited 0-25% inhibition of calcium ion influx induced by capsaicin stimulation)
CCC/C=C/c1ccc(C(=O)NC2CCC(Cc3ccccc3)CC2)cc1 (stereo not shown) [Compound 207] | ++ (compound exhibited 25-50% inhibition of calcium ion influx induced by capsaicin stimulation)
CCC/C=C/c1ccc(C(=O)NCc2ccc3c(c2)OCO3)cc1 [Compound 208] | + (compound exhibited 0-25% inhibition of calcium ion influx induced by capsaicin stimulation)
CCC/C=C/c1ccc(C(=O)NCCN2CCOCC2)cc1 [Compound 209] | + (compound exhibited 0-25% inhibition of calcium ion influx induced by capsaicin stimulation)
CCC/C=C/c1ccc(C(=O)NCc2cccc(C(F)(F)F)c2)cc1 [Compound 211] | + (compound exhibited 0-25% inhibition of calcium ion influx induced by capsaicin stimulation)
CCC/C=C/c1ccc(C(=O)NCc2cc(OC)c(OC)c(OC)c2)cc1 [Compound 213] | + (compound exhibited 0-25% inhibition of calcium ion influx induced by capsaicin stimulation)
CCC/C=C/c1ccc(C(=O)NC2CCCC2)cc1 [Compound 214] | + (compound exhibited 0-25% inhibition of calcium ion influx induced by capsaicin stimulation)
CCC/C=C/c1ccc(C(=O)NCc2ccccn2)cc1 [Compound 216] | + (compound exhibited 0-25% inhibition of calcium ion influx induced by capsaicin stimulation)
CCC/C=C/c1ccc(C(=O)NCCc2ccc(OC)c(OC)c2)cc1 [Compound 217] | + (compound exhibited 0-25% inhibition of calcium ion influx induced by capsaicin stimulation)
CCC/C=C/c1ccc(C(=O)NC(C)(C)CO)cc1 [Compound 218] | + (compound exhibited 0-25% inhibition of calcium ion influx induced by capsaicin stimulation)
CCC/C=C/c1ccc(C(=O)NC(C)(C)c2ccccc2)cc1 [Compound 219] | + (compound exhibited 0-25% inhibition of calcium ion influx induced by capsaicin stimulation)
CCC/C=C/c1ccc(C(=O)NCC)cc1 [Compound 223] | +++ (compound exhibited 50-75% inhibition of calcium ion influx induced by capsaicin stimulation)
CCC/C=C/c1ccc(C(=O)NCc2cccs2)cc1 [Compound 224] | ++ (compound exhibited 25-50% inhibition of calcium ion influx induced by capsaicin stimulation)
CCC/C=C/c1ccc(C(=O)Nc2ccccc2C#N)cc1 [Compound 225] | + (compound exhibited 0-25% inhibition of calcium ion influx induced by capsaicin stimulation)
CCC/C=C/c1ccc(C(=O)Nc2cccc(N(C)C)c2)cc1 [Compound 226] | +++ (compound exhibited 50-75% inhibition of calcium ion influx induced by capsaicin stimulation)
CCC/C=C/c1ccc(C(=O)Nc2ccc(N(CC)CC)cc2)cc1 [Compound 227] | + (compound exhibited 0-25% inhibition of calcium ion influx induced by capsaicin stimulation)
CCC/C=C/c1ccc(C(=O)Nc2cccc(Cl)c2)cc1 [Compound 228] | +++ (compound exhibited 50-75% inhibition of calcium ion influx induced by capsaicin stimulation)
CCC/C=C/c1ccc(C(=O)Nc2ccccc2CCC)cc1 [Compound 230] | + (compound exhibited 0-25% inhibition of calcium ion influx induced by capsaicin stimulation)
